Results taken from patent publication US5939578A, “Vasomolol: an ultra short-acting and vasodilatory vanilloid type β - adrenoceptor antagonist” (Lin; Tong-Ho, priority 1996, dated 1999).

Experiments:
[1] = target: T1, β-adrenoceptor, ventricular membranes (Sus scrofa, UniProt Q28998); experiment: Competition for [3H]-DHA binding to ventricular membranes; design: species or system pig
T1 construct: tissue local slaughterhouse; host or cells: pig heart ventricular membranes
Method: Pig's heart were obtained from a local slaughterhouse immediately after the animals had been killed and transported to our laboratory in ice-cold buffer (250 mM sucrose/50 mM Tris [hydroxymethyl] aminomethane HCl/1 mM magnesium chloride, pH 7.4). Various heart tissues were removed and prepared as detailed as described in Cardiovasc. […] In the test for receptor binding, the ventricles were placed in ice-cold buffer and all subsequent procedures were carried out at 4° C. The tissue was homogenised in 20 volumes of TE buffer (10 mmole.litre^-1 Tris-HCl, 1 mmole.litre^-1 EDTA, 0.1 mmole.litre^-1 ascorbic acid, pH 7.4) with three 12-s pulses using a Polytron homogenizer (Kinematica, Model PT 3000, Switzerland). The homogenate was filtered with pressure through muslin and the filtrate centrifuged for 10 min at 1000 g to remove connective tissue, unbroken cells and cell debris.
This membrane preparation has been described in Biochem. Biophys. Acta. […] The binding assay of [^3 H]-DHA was carried out as described in Biochem. Biophys. Res. Commun. […] [^3 ]-DHA and ventricular membranes (200-300 μg) were incubated for 60 min at 25° C. with and without the addition of 1 μM alprenolol, in 75 mM Tris-HCI buffer comprising MgCl2 25 mM, to make a final volume of 250 μl. In competitive binding experiments, the competing agent was added directly to the incubation mixture. The incubation was terminated by addition of 1 ml of ice-cold assay buffer followed by immediate filtration through Whatman GF/C glass fiber filters supported on a 12-port filter manifold (Millipore). The filters were immediately washed three times with 5 ml of ice-cold assay buffer and dried in an oven at 60° C. for 2 hr prior to adding 5 ml of Triton-toluene based scintillation fluid.
(§1) In each experiment, non-specifically bound [^3 H]-DHA was determined by incubating membrane protein and [^3 H]-DHA with 1 μM alprenolol. Specific binding was thus obtained by deducing this value from the total binding of [^3 H]-DHA for each sample.
All incubations were performed as described in the method section. Data shown are the means of three independent duplicate determinations.

blood and liver esterase = conditions: background, Drugs 33, 392, 1987; cited from earlier work
β-adrenergic receptor = experiment: β-blockade and duration of action: inhibition of (-)isoproterenol-induced tachycardia during and after infusion; format: in vivo, pentobarbital-anesthetized rats
Method: Vasomolol (100 μg/kg/min) was infused consecutively into a femoral vein in pentobarbital-anesthetized rats. Each perfusion was maintained for 60 min. Before and during the infusion of vasomolol and esmolol, at 10-min intervals, bolus i.v. injections of (-) isoproterenol (0.5. μg/kg) were administered to assess the level of β-blockade. (-) lsoproterenol injections were also continued for 60 min. after termination of the highest dose of vasomolol and esmolol to assess the duration of β-blockade reported in J. Pharm. Exp. Ther. 237, 912, 1986 (by Quon, C. Y. et al.). The percentage of inhibition of the (-)isoproterenol-induced tachycardia parameter of β-blockade--was calculated during and after infusions of vasomolol.
isoproterenol (0.5 μg/kg)
(§2) vasomolol (0.5, 1.0, 3.0 mg/kg)

[2] = test system: phenylephrine-induced pressor response; experiment: Inhibition of phenylephrine-induced pressor response during intravenous infusion; format: in vivo, reserpinized rats; conditions: infusion 300 μg/kg/min; phenylephrine 10 μg/kg i.v.; data not shown
Method: The method reported in Gen. Pharmacol. 24, 1425, 1993 (by inventor group),
phenylephrine (10 μg/klg, i.v.)

[3] = Blood pressure and heart rate responses to intravenous injection in anesthetized rats; format: in vivo, pentobarbital-anesthetized normotensive Wistar rats
Method: Measurement of blood pressure and heart rate
The method reported in Gen.
as §2

[4] = as above; format: in vivo, pentobarbital-anesthetized normotensive Wistar rats; conditions: 0.1 mg/kg i.v.; mean ± SEM (n = 8)
[5] = test system: right atria and left atrial strips; experiment: Intrinsic sympathomimetic activity in isolated right atria and left atrial strips; design: species or system reserpinized guinea-pigs; conditions: in words
Method: Animals were pretreated with reserpine (10 mg/kg, i.p.) 24 hr prior to the experiment described in Naunyn-Schmiedeberg's Arch. […] All preparations including isolated right atria and left atria strips were studied.
All measurements are expressed as mean percentages of the control frequency or force in the same preparation.

[6] = test system: β-adrenoceptor, ventricular membranes; experiment: [3H]-DHA saturation binding to ventricular membranes (Scatchard analysis); design: species or system pig
Method: Pig's heart were obtained from a local slaughterhouse immediately after the animals had been killed and transported to our laboratory in ice-cold buffer (250 mM sucrose/50 mM Tris [hydroxymethyl] aminomethane HCl/1 mM magnesium chloride, pH 7.4). Various heart tissues were removed and prepared as detailed as described in Cardiovasc. Res. 25, 764, 1991 (by Bjornerheim, R. et al.). In the test for receptor binding, the ventricles were placed in ice-cold buffer and all subsequent procedures were carried out at 4° C. The tissue was homogenised in 20 volumes of TE buffer (10 mmole.litre^-1 Tris-HCl, 1 mmole.litre^-1 EDTA, 0.1 mmole.litre^-1 ascorbic acid, pH 7.4) with three 12-s pulses using a Polytron homogenizer (Kinematica, Model PT 3000, Switzerland). The homogenate was filtered with pressure through muslin and the filtrate centrifuged for 10 min at 1000 g to remove connective tissue, unbroken cells and cell debris. The supernatant was centrifuged again at 10,000 g for 12 min. This second supernatant was then centrifuged for 15 min at 30,000 g and the final pellet was suspended in a assay buffer (75 mM Tris HCl/25 mM MgCl2, pH 7.4).
Protein was determined by the method in Anal. Biochem. 72, 248, 1976 (by Bradford, M. M. et al.). This membrane preparation has been described in Biochem. Biophys. Acta. 541, 334, 1978 (by Ciaraldi, T. et al.). The binding assay of [^3 H]-DHA was carried out as described in Biochem. Biophys. Res. Commun. 60, 703, 1974 ( by Lefkowitz, R. J. et al.) with slight modifications. [^3 ]-DHA and ventricular membranes (200-300 μg) were incubated for 60 min at 25° C. with and without the addition of 1 μM alprenolol, in 75 mM Tris-HCI buffer comprising MgCl2 25 mM, to make a final volume of 250 μl. In competitive binding experiments, the competing agent was added directly to the incubation mixture. The incubation was terminated by addition of 1 ml of ice-cold assay buffer followed by immediate filtration through Whatman GF/C glass fiber filters supported on a 12-port filter manifold (Millipore). The filters were immediately washed three times with 5 ml of ice-cold assay buffer and dried in an oven at 60° C. for 2 hr prior to adding 5 ml of Triton-toluene based scintillation fluid.
as §1, with “[^3 H]-DHA trapped in the filters was counted in a Wallac LKB 1211 rackbeta liquid scintillation counter with an efficiency of 41%. In” for “In”
[^3 H]dihydroalprenolol([^3 H]DHA) binding curve with pig ventricular membranes. […]

[7] = 0.5 mg/kg i.v., mean ± SEM (n = 8)
[8] = 1.0 mg/kg i.v., mean ± SEM (n = 8)
[9] = 3.0 mg/kg i.v., mean ± SEM (n = 8)

T1 sequence (Q28998 whole entry): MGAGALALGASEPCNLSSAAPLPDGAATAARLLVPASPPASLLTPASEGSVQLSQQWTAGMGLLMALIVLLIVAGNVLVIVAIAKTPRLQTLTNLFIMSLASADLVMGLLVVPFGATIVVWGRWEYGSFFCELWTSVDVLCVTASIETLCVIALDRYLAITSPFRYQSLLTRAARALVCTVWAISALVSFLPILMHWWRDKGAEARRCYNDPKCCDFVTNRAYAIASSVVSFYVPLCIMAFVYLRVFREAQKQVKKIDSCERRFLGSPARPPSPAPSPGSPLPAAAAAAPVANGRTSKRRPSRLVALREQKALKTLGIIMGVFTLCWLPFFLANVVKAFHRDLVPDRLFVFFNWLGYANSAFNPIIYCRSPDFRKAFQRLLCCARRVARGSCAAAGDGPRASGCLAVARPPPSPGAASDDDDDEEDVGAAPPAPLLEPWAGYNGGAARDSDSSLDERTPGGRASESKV

COC(=O)CCc1ccc(OCC(O)CNC(C)C)cc1 (centres unmarked) [Esmolol]
order of potency inhibiting [3H]-DHA binding ([1]; in words): (-) propranolol>>vasomolol=esmolol
IC50 ([1]; mean±S.E.M.): 5000 ± 1300 nM
metabolism by blood and liver esterase (blood and liver esterase): rapidly metabolized by blood and liver esterase
onset of β-blockade to steady-state level (β-adrenergic receptor; after initiating each infusion rate, isoproterenol 0.5 μg/kg): ≤ 10 min
time required for 50% recovery (β-adrenergic receptor; after termination of infusion, mean±S.E.M.): 9.5 ± 1.0 min
disappearance of β-blockade after termination of infusion (β-adrenergic receptor; in words): disappeared rapidly after the termination of infusion
inhibition of phenylephrine-induced pressor response [2]: could not significantly inhibit
BP change [3, 7]: -4.0 ± 0.8 mm Hg
HR change [3, 7]: -25.7 ± 2.4 bpm
bradycardia duration [3, 7]: 3.7 ± 0.6 min
BP change [3, 8]: -6.3 ± 1.3 mm Hg
HR change [3, 8]: -37.5 ± 3.6 bpm
bradycardia duration [3, 8]: 6.0 ± 1.3 min
BP change [3, 9]: -8.7 ± 0.9 mm Hg
HR change [3, 9]: -58.2 ± 4.7 bpm
bradycardia duration [3, 9]: 7.5 ± 1.1 min
bradycardia duration ([3]; i.v. injection): less than 10 min

CC(C)NCC(O)COc1cccc2ccccc12 (centres unmarked) [Propranolol]
HR change [4]: -30.7 ± 3.8 bpm
negative inotropic and chronotropic effects [5]: produced negative inotropic and chronotropic effects
BP change ([3]; 0.1 mg/kg i.v., mean ± SEM (n = 8)): 3.9 ± 1.0 mm Hg
BP change [3, 7]: 7.0 ± 1.6 mm Hg
HR change [3, 7]: -50.6 ± 8.1 bpm
BP change [3, 8]: 9.5 ± 1.1 mm Hg
HR change [3, 8]: -65.0 ± 8.9 bpm

CCCc1ccccc1OCC(O)CNC(C)C (centres unmarked) [[^3 H]-DHA, [^3 H]dihydroalprenolol]
maximum binding capacity (Bmax) ([6]; 25° C., mean±S.E.M., Scatchard): 120.3±6.0 fmol/mg protein
Kd ([6]; 25° C., mean±S.E.M., Scatchard, read-out: equilibrium dissociation constant (Kd)): 8.1 ± 0.9 nM
duration of maintained binding equilibrium ([6]; data not shown): up to 90 min
time to reach binding equilibrium ([6]; data not shown): approximately 20 min

CC(C)NCC(O)c1ccc(O)c(O)c1 (centres unmarked) [isoproterenol, reference compound]
intrinsic sympathomimetic activity: effect on heart rate and contractility ([5]; cumulative concentrations): produced concentration-dependent increases in heart rate and contractility
